# In patent publication US8574831B2, “Mutational profiles in HIV-1 reverse transcriptase correlated with phenotypic drug resistance” (Virco N.V., priority 2000, dated 2013):
# Test system: HIV with mutations in the HIV protease sequence
# Experiment: Phenotypic fold resistance to protease inhibitors, protease mutations 84A/84L/84C/54M/54L/54V in a background (Examples 8-13)
# Assay type: cell-based, HIV-1
# Protocol: As is the case with the genotyping assays, the recombinant virus assay starts with the amplification of viral target sequences by means of PCR. The amplicons are incorporated into a proviral laboratory clone with sequences homologous to those present in the amplicon deleted. This generates a stock of chimeric viruses. The viruses are tested for their ability to grow in the presence of different concentrations of drugs. Results are obtained by calculating IC50 values for each inhibitor and by reporting the results as IC50 values, expressed in μM concentrations, or by computing the ratio of the IC50 values found for the chimeric virus to the IC50 values found for a wild type susceptible laboratory virus tested in parallel. In the latter case, resistance is expressed as “fold-resistance” compared to a wild-type susceptible HIV-1 strain. In order to meet the need for high-volume testing and a short turn-around time for an individual test, the latest generation of phenotyping assays has undergone further modifications. The use of reporter gene systems for susceptibility testing allows the implementation of laboratory automation and standardization. See Pauwels, et al., J. Virol. Methods 20, 309-321 (1998); Paulous, S., et al., International Workshop on HIV Drug Resistance, Treatment Strategies and Eradication, St. Petersburg, Fla., USA. Abstr. 46 (1997); and Deeks, S. G., et al., 2nd International Workshop on HIV Drug Resistance and Treatment Strategies, Lake Maggiore, Italy. Abstr. 53 (1998).
# The ANTIVIROGRAM® assay (Virco) (WO 97/27480) is based on homologous recombination of patient derived HIV-1 gag/PR/RT sequences into a proviral HIV-1 clone correspondingly deleted for the gag/PR/RT sequences. See Pauwels, et al., J. Virol. Methods 20, 309-321 (1998). A similar assay (Phenosense ViroLogic) is based on enzymatic ligation of patient-derived PR/RT sequences into a correspondingly deleted proviral vector carrying an indicator gene, luciferase, inserted in the deleted HIV-1 envelope gene. See Deeks, S. G., et al., 2nd International Workshop on HIV Drug Resistance and Treatment Strategies, Lake Maggiore, Italy. Abstr. 53 (1998). Hertogs et al. Antimicrob. Agents Chemother. 44(3) 568-573 (2000) the disclosures of which are herein incorporated by reference.
# The methods of monitoring HIV-1 drug resistance, may also be used in combination with phenotypic drug resistance testing of viral isolates. For example, in one embodiment, a phenotypic test is utilized that is based upon the construction of chimeric HIV-1 strains composed of the protease (PR) and reverse transcriptase (RT) gene sequences which are isolated and amplified from the patient viral RNA. These strains may subsequently be recombined inside CD4+ T cells with a standard laboratory isogenic (HXB2) HIV-1 DNA construct from which the PR/RT gene sequences were deleted. The recombinant strains may then be grown in the presence of the above-mentioned antiviral drugs and the susceptibility of the viral isolates may be expressed as fold-change value of the IC50 of the drug on the patient isolates over the IC50 of the drug on a wild-type laboratory reference strain.
compound,measurement,setting,value
"CC(C)(C)NC(=O)[C@@H]1CN(Cc2cccnc2)CCN1C[C@@H](O)C[C@@H](Cc1ccccc1)C(=O)N[C@H]1c2ccccc2C[C@H]1O [Indinavir, indinavir]",Fold change in IC50,"Table 12, V055199, genotype 10I + 33F + 54M + 90M",2.3 fold
same,Fold change in IC50,"Table 13, V19263, genotype 77I",0.4 fold
same,Fold change in IC50,"Table 13, V20160, genotype WT",0.9 fold
same,Fold change in IC50,"Table 13, V021667, genotype 10I",0.7 fold
same,Fold change in IC50,"Table 13, V030496, genotype 10I + 77I",0.4 fold
same,Fold change in IC50,"Table 13, V048868, genotype 10I + 54L + 71V + 77I + 90M",6.2 fold
same,Fold change in IC50,"Table 13, V048874, genotype 10I + 33F + 54L + 71V + 77I + 90M",2.1 fold
same,Fold change in IC50,"Table 13, V048875, genotype 10I + 33F + 54L + 71V + 77I + 90M",3.7 fold
same,Fold change in IC50,"Table 13, V048877, genotype 10I + 33F + 77I + 90M",2.9 fold
same,Fold change in IC50,"Table 13, V048880, genotype 10I + 33F + 77I + 90M",1.3 fold
same,Fold change in IC50,"Table 13, V052940, genotype 71V",0.7 fold
same,Fold change in IC50,"Table 13, V052942, genotype 10I + 71V",0.6 fold
same,Fold change in IC50,"Table 13, V052943, genotype 10I + 90M",0.5 fold
same,Fold change in IC50,"Table 13, V052944, genotype 10I + 90M",0.5 fold
same,Fold change in IC50,"Table 13, V052945, genotype 77I + 90M",0.6 fold
same,Fold change in IC50,"Table 13, V052946, genotype 71V + 90M",0.9 fold
same,Fold change in IC50,"Table 13, V052947, genotype 10I + 77I + 90M",2.9 fold
same,Fold change in IC50,"Table 13, V052948, genotype 10I + 71V + 90M",8.6 fold
same,Fold change in IC50,"Table 13, V052949, genotype 10I + 71V + 77I + 90M",2.7 fold
same,Fold change in IC50,"Table 13, V052950, genotype 33F",0.6 fold
same,Fold change in IC50,"Table 13, V052951, genotype 33F + 77I",0.4 fold
same,Fold change in IC50,"Table 13, V052953, genotype 10I + 33F + 77I",0.8 fold
same,Fold change in IC50,"Table 13, V052954, genotype 33F + 77I + 90M",1.7 fold
same,Fold change in IC50,"Table 13, V052955, genotype 33F + 71V + 90M",5.3 fold
same,Fold change in IC50,"Table 13, V052968, genotype 10L/I + 33F/L + 54L + 77I",1.3 fold
same,Fold change in IC50,"Table 13, V052969, genotype 10I + 33F + 54L + 90M",1.3 fold
same,Fold change in IC50,"Table 13, V052970, genotype 54L",0.6 fold
same,Fold change in IC50,"Table 13, V052971, genotype 10I + 54L",0.7 fold
same,Fold change in IC50,"Table 13, V052972, genotype 54L + 77I",0.8 fold
same,Fold change in IC50,"Table 13, V052973, genotype 10I + 54L + 77I",0.8 fold
same,Fold change in IC50,"Table 13, V052974, genotype 10I + 54L + 90M",1.7 fold
same,Fold change in IC50,"Table 13, V052975, genotype 10I + 54L + 71V + 90M",10.2 fold
same,Fold change in IC50,"Table 13, V052976, genotype 10I + 54L + 71V + 77I + 90M",1.7 fold
same,Fold change in IC50,"Table 13, V053832, genotype 10I + 33F",0.4 fold
same,Fold change in IC50,"Table 13, V053854, genotype 54L + 71V",1.7 fold
same,Fold change in IC50,"Virco ID 214846, genotype 10I + 33F + 54V + 71V + 77I + 90M, vs mean IC50 of wild type laboratory HIV strain",13.8 fold
same,Fold change in IC50,"Virco ID V021667, genotype 10I, vs mean IC50 of wild type laboratory HIV strain",0.7 fold
same,Fold change in IC50,"Virco ID V030496, genotype 10I + 77I, vs mean IC50 of wild type laboratory HIV strain",0.4 fold
same,Fold change in IC50,"Virco ID V048876, genotype 33F + 54V + 77I + 90M, vs mean IC50 of wild type laboratory HIV strain",0.6 fold
same,Fold change in IC50,"Virco ID V048877, genotype 10I + 33F + 77I + 90M, vs mean IC50 of wild type laboratory HIV strain",2.9 fold
same,Fold change in IC50,"Virco ID V048880, genotype 10I + 33F + 77I + 90M, vs mean IC50 of wild type laboratory HIV strain",1.3 fold
same,Fold change in IC50,"Virco ID V052940, genotype 71V, vs mean IC50 of wild type laboratory HIV strain",0.7 fold
same,Fold change in IC50,"Virco ID V052942, genotype 10I + 71V, vs mean IC50 of wild type laboratory HIV strain",0.6 fold
same,Fold change in IC50,"Virco ID V052943, genotype 10I + 90M, vs mean IC50 of wild type laboratory HIV strain",0.5 fold
same,Fold change in IC50,"Virco ID V052944, genotype 10I + 90M, vs mean IC50 of wild type laboratory HIV strain",0.5 fold
same,Fold change in IC50,"Virco ID V052946, genotype 71V + 90M, vs mean IC50 of wild type laboratory HIV strain",0.9 fold
same,Fold change in IC50,"Virco ID V052947, genotype 10I + 77I + 90M, vs mean IC50 of wild type laboratory HIV strain",2.9 fold
same,Fold change in IC50,"Virco ID V052948, genotype 10I + 71V + 90M, vs mean IC50 of wild type laboratory HIV strain",8.6 fold
same,Fold change in IC50,"Virco ID V052949, genotype 10I + 71V + 77I + 90M, vs mean IC50 of wild type laboratory HIV strain",2.7 fold
same,Fold change in IC50,"Virco ID V052950, genotype 33F, vs mean IC50 of wild type laboratory HIV strain",0.6 fold
same,Fold change in IC50,"Virco ID V052951, genotype 33F + 77I, vs mean IC50 of wild type laboratory HIV strain",0.4 fold
same,Fold change in IC50,"Virco ID V052953, genotype 10I + 33F + 77I, vs mean IC50 of wild type laboratory HIV strain",0.8 fold
same,Fold change in IC50,"Virco ID V052954, genotype 33F + 77I + 90M, vs mean IC50 of wild type laboratory HIV strain",1.7 fold
same,Fold change in IC50,"Virco ID V052955, genotype 33F + 71V + 90M, vs mean IC50 of wild type laboratory HIV strain",5.3 fold
same,Fold change in IC50,"Virco ID V052957, genotype 10I + 33F + 54V + 90M, vs mean IC50 of wild type laboratory HIV strain",1.4 fold
same,Fold change in IC50,"Virco ID V052958, genotype 10I + 33F + 54V + 77I + 90M, vs mean IC50 of wild type laboratory HIV strain",16.3 fold
same,Fold change in IC50,"Virco ID V052959, genotype 10I + 33F + 54V + 77I + 90M, vs mean IC50 of wild type laboratory HIV strain",12.8 fold
same,Fold change in IC50,"Virco ID V052960, genotype 10I + 33F + 54V + 71V + 90M, vs mean IC50 of wild type laboratory HIV strain",9.9 fold
same,Fold change in IC50,"Virco ID V052961, genotype 54V, vs mean IC50 of wild type laboratory HIV strain",0.7 fold
same,Fold change in IC50,"Virco ID V052962, genotype 10I + 54V, vs mean IC50 of wild type laboratory HIV strain",0.8 fold
same,Fold change in IC50,"Virco ID V052963, genotype 54V + 77I + 90M, vs mean IC50 of wild type laboratory HIV strain",1.2 fold
same,Fold change in IC50,"Virco ID V052964, genotype 54V + 71V + 90M, vs mean IC50 of wild type laboratory HIV strain",0.7 fold
same,Fold change in IC50,"Virco ID V052965, genotype 10I + 54V + 77I + 90M, vs mean IC50 of wild type laboratory HIV strain",8.2 fold
same,Fold change in IC50,"Virco ID V052966, genotype 10I + 54V + 71V + 90M, vs mean IC50 of wild type laboratory HIV strain",7.7 fold
same,Fold change in IC50,"Virco ID V052967, genotype 10I + 54V + 71V + 77I + 90M, vs mean IC50 of wild type laboratory HIV strain",0.4 fold
same,Fold change in IC50,"Virco ID V053358, genotype 33F + 54V + 77I + 90M, vs mean IC50 of wild type laboratory HIV strain",1.2 fold
same,Fold change in IC50,"Virco ID V053831, genotype 33F + 54V, vs mean IC50 of wild type laboratory HIV strain",5.4 fold
same,Fold change in IC50,"Virco ID V053832, genotype 10I + 33F, vs mean IC50 of wild type laboratory HIV strain",0.4 fold
